Measured values taken from patent publication US4379165A, “Anti-convulsant” (priority 1981, dated 1983).
“Also recorded” adds a separate entry of the source. Like-named read-outs stand apart in the source and are kept apart here.

Tests used:
[1] = system: maximal electroshock seizures; experiment: maximal electroshock seizure (MES) pattern test, mice; details: for ED50: Mus musculus, read-out: ED50 MES
Protocol: (§1) The solution was prepared by dissolving the compound in 30% polyethylene glycol 400. The compound was injected either orally or intraperitoneally in a volume of 0.01 ml/g body weight in mice and 0.04 ml/10 g body weight in rats.
(§2) The profile of anti-convulsant activity for each substance was established by five tests: one electrical and four chemical. The electrical test employed was the maximal electroshock seizure (MES) pattern test. […] These tests are conducted by administering the anti-convulsant compound or drug to the animals then giving the convulsive amount of electrical energy or chemical convulsant and measuring the ability of the test compound to prevent the production of convulsions.
(§3) This test measures the ability of the test drug to abolish the hind-limb tonic-extensor component of maximal seizures induced by 50 mA of current delivered to the animals for 0.2 seconds.

[2] = in vivo; details: mouse
Protocol: as §1
(§4) Untreated or normal animals can easily maintain their balance in this test.

[3] = system: subcutaneous metrazol seizure threshold; experiment: subcutaneous Metrazol Seizure Threshold Test (sc Met), mice; details: for ED50: Mus musculus, read-out: ED50 sc Met
Protocol: as §1
(§5) The profile of anti-convulsant activity for each substance was established by five tests: one electrical and four chemical. The electrical test employed was the maximal electroshock seizure (MES) pattern test. The four chemical tests included the subcutaneous Metrazol Seizure Threshold Test (sc Met), subcutaneous Bicuculline Seizure Threshold Test (sc Bic), subcutaneous Picrotoxin Seizure Threshold Test (sc Pic), and the subcutaneous Strychnine Seizure Pattern Test (sc Strych). These tests are conducted by administering the anti-convulsant compound or drug to the animals then giving the convulsive amount of electrical energy or chemical convulsant and measuring the ability of the test compound to prevent the production of convulsions.
(§6) (b) scMet=Subcutaneous metrazol seizure threshold test. The test measures the ability of the test drug to afford complete protection against a subcutaneously administered convulsant dose of metrazol.
(§7) (j) PI=Protective index, defined as the ratio of TD50 to ED50 (TD50/ED50).

[4] = system: maximal electroshock seizures; experiment: maximal electroshock seizure (MES) pattern test, rats; details: for ED50: Rattus norvegicus, po, read-out: ED50 MES
Protocol: as §1, §2, §3

[5] = system: subcutaneous picrotoxin seizure threshold; experiment: animal or person; details: Mus musculus, ip, read-out: ED50 Picrotoxin
Protocol: as §1, §5
(§8) (d) scPic=Subcutaneous picrotoxin seizure threshold test.
(§9) (j) PI=Protective index, defined as the ratio of TD50 to ED50 (TD50/ED50). The PI is a measure of the safety of the drug. A high PI value indicates a greater margin of safety between the effective dose for the pharmacological effect and the toxic dose producing side-effects. A compound with a high PI would be a safer drug to use.

[6] = system: ability to maintain balance on a rotating rod; experiment: Rotorod Toxicity Test, rats; assay type: in vivo; details: for animals toxic: intraperitoneal, footnote of Table 5
Protocol: as §1, §4

[7] = system: subcutaneous strychnine seizure pattern; experiment: animal or person; details: Mus musculus, ip, read-out: ED50 Strychnine
Protocol: as §1
(§10) The profile of anti-convulsant activity for each substance was established by five tests: one electrical and four chemical. […] The four chemical tests included the subcutaneous Metrazol Seizure Threshold Test (sc Met), subcutaneous Bicuculline Seizure Threshold Test (sc Bic), subcutaneous Picrotoxin Seizure Threshold Test (sc Pic), and the subcutaneous Strychnine Seizure Pattern Test (sc Strych). These tests are conducted by administering the anti-convulsant compound or drug to the animals then giving the convulsive amount of electrical energy or chemical convulsant and measuring the ability of the test compound to prevent the production of convulsions.
(§11) (e) ScStrych=Subcutaneous strychnine seizure pattern test. The test measures the ability of the test drug to abolish all toxic components of seizures induced by the subcutaneous injection of a convulsant dose of strychnine.

[8] = system: lethality; experiment: lethality, LD50; assay type: in vivo; details: mice; intraperitoneal; 24-hour period
Protocol: (§12) The anti-convulsant amide (4) was administered to mice and rats as a solution. The solution was prepared by dissolving the compound in 30% polyethylene glycol 400. The compound was injected either orally or intraperitoneally in a volume of 0.01 ml/g body weight in mice and 0.04 ml/10 g body weight in rats.

[9] = system: subcutaneous bicuculline seizure threshold; experiment: subcutaneous Bicuculline Seizure Threshold Test (sc Bic); details: for ED50: Mus musculus, ip, read-out: ED50 Bicuculline, mice
Protocol: as §1, §10
(c) scBic=Subcutaneous bicuculline seizure threshold test.
as §7

[10] = system: righting reflex; experiment: hypnosis (loss of righting reflex), HD50; details: mice; intraperitoneal
Protocol: as §1
(§13) (h) HD50=Hypnotic dose in 50% of the subjects tested.
(§14) (l) Slope of regression line--This represents the rate of change in response (effect) for a change in dose. The higher the numerical value of the slope, the greater the rate of change in response.

[11] = hypnosis (loss of righting reflex), HD50; details: mouse, in vivo, ip
Protocol: as §1, §13, §14

[12] = system: subcutaneous metrazol seizure threshold; experiment: subcutaneous Metrazol Seizure Threshold Test (sc Met), rats; details: for ED50: Rattus norvegicus, po; for animals protected vs sc Met test: intraperitoneal, footnote of Table 5
Protocol: as §1, §5, §6, §7

[13] = maximal electroshock seizure (MES) pattern test, rats; details: rat, in vivo, po, PI (TD50/ED50) MES, rats (Table 7; title of Table 5 prints Mice)
Protocol: as §1, §2, §3

[14] = system: subcutaneous strychnine seizure pattern; details: mice
Protocol: as §1, §10, §11

[15] = Rotorod Toxicity Test, rats; assay type: in vivo; details: rat, in vivo, po
Protocol: as §1, §4

[16] = subcutaneous Metrazol Seizure Threshold Test (sc Met), mice; details: mouse, in vivo, PI (TD50/ED50) sc Met, mice
Protocol: as §1, §5, §6, §7

[17] = in vivo; details: mouse; remark: listed apart in the source
Protocol: as §1, §2, §3

[18] = system: Salmonella indicator organisms; experiment: in vitro microbial mutagenicity assays; details: 1.0 ug to 10,000.0 ug per plate
Protocol: The amide was examined for mutagenic activity in a series of in vitro microbial assays employing Salmonella indicator organisms. The compound was tested directly and in the presence of liver microsomal enzyme preparations from Aroclor-induced rats. The dose range employed for the evaluation was from 1.0 ug to 10,000.0 ug per plate. The results of the tests conducted on the amide in the absence of a metabolic activation system and in the presence of a rat liver activation system were negative.

[19] = lethality, LD50; assay type: in vivo; details: mouse, in vivo, ip, mice, intraperitoneal; for LD50 at 24 h: 24-hour period
Protocol: as §12

[20] = system: ability to maintain balance on a rotating rod
Protocol: as §1, §4

[21] = system: subcutaneous picrotoxin seizure threshold; details: mice
Protocol: as §1, §5, §8, §9

[22] = system: convulsions; experiment: anti-convulsant activity, overall statements from animal studies; assay type: in vivo; details: mice and rats
[23] = in vivo; details: mouse, ip
Protocol: as §1, §13, §14

[24] = subcutaneous Metrazol Seizure Threshold Test (sc Met), rats; details: rat, in vivo, po
Protocol: as §1, §5, §6, §7

[25] = rats (Table 7; title of Table 5 prints Mice), oral
[26] = mice, oral, at / up to 300 (mg/kg)
[27] = rats (Table 7; title of Table 5 prints Mice), oral, at 300 (mg/kg)
[28] = mice, intraperitoneal, up to 100 (mg/kg)

CCCN(CCC)C(=O)c1ccc(N)cc1 [compound 5]
ED50 ([1]; ip): 61.7 mg/kg | TD50 ([2]; ip): 116 mg/kg

CCCCCNC(=O)c1ccc(N)cc1 [compound 3]
ED50 ([1]; ip): 43 mg/kg | ED50 ([3]; ip): 57.3 mg/kg | TD50 ([2]; ip): 68.5 mg/kg

CCC1(c2ccccc2)C(=O)NC(=O)NC1=O [Phenobarbital]
ED50 [4]: 9.14 mg/kg | ED50 [5]: 27.5 mg/kg | ED50 ([1]; ip): 21.8 mg/kg | ED50 ([1]; po): 20.1 mg/kg | Rotorod TD50 [6, 25]: 61.09 mg/kg | ED50 ([3]; ip): 13.2 mg/kg | ED50 ([3]; po): 12.6 mg/kg | ED50 [7]: 95.3 mg/kg | LD50 (lethality) [8]: 264.70 mg/kg | ED50 ([9]; intraperitoneal): 37.7 mg/kg | HD50 (righting reflex) [10]: 135.45 mg/kg | TD50 [11]: 135 mg/kg | ED50 ([12]; read-out: ED50 sc Met, rats (Table 7; title of Table 5 prints Mice), oral): 11.6 mg/kg | ED50 sc Met [12, 25]: 11.58 mg/kg

CC(NC(=O)c1ccc(N)cc1)c1ccccc1 (stereo not drawn) [4-amino-N-(alpha-methylbenzyl)-benzamide]
selectivity ratio [13]: 10.6 | ED50 [4]: 16.1 mg/kg | PI (TD50/ED50) MES [4, 25]: 10.5 | ED50 [5]: 191 mg/kg | activity against seizures induced by strychnine ([14]; in words): only partially effective | PI (TD50/ED50) Strychnine ([14]; intraperitoneal): < 0.85 | Maximum protection, Strychnine ([14]; intraperitoneal, at 170 mg/kg): 37.5% | protection, Strychnine ([14]; intraperitoneal, at 200 (mg/kg)): 25% | oral ED50/i.p. ED50 ([1]; MES test in mice): 2.65 | ED50 ([1]; ip): 18 mg/kg | ED50 ([1]; po): 47.7 mg/kg | absorption after oral administration ([1]; mice, from oral ED50/i.p. ED50 in MES test): adequately absorbed | TD50 [15]: 170 mg/kg | animals toxic ([6]; 75 mg/kg): 2/8 | animals toxic ([6]; 150 mg/kg): 6/8 | selectivity ratio ([16]; intraperitoneal): 4.09 | selectivity ratio ([16]; oral): < 0.9 | ED50 ([3]; ip): 41.7 mg/kg | Maximum protection, sc Met ([3]; mice, oral, at 100 (mg/kg)): 25% | protection, sc Met [3, 26]: no protection and No | selectivity ratio ([17]; ip): 9.48 | selectivity ratio ([17]; po): 5.69 | mutagenic activity ([18]; absence of a metabolic activation system): negative | mutagenic activity ([18]; rat liver activation system): negative | TD50 ([2]; ip): 171 mg/kg | TD50 ([2]; po): 271 mg/kg | selectivity ratio ([19]; read-out: Ratio LD50/HD50): 1.56 | selectivity ratio ([19]; read-out: Ratio LD50/TD50): 4.21 | LD50 at 24 h [19]: 718 mg/kg | Rotorod TD50 ([20]; mice, intraperitoneal): 170.78 mg/kg | ED50 ([9]; intraperitoneal): 39.1 mg/kg | activity against seizures induced by bicuculline ([9]; mice, in words): effective against seizures induced by bicuculline | PI (TD50/ED50) Bicuculline ([9]; mice, intraperitoneal): 4.37 | activity against picrotoxin seizures ([21]; in words): effective against picrotoxin seizures in toxic doses | PI (TD50/ED50) Picrotoxin ([21]; intraperitoneal): 0.89 | HD50 (righting reflex) [10]: 461.76 mg/kg | TD50 [11]: 462 mg/kg | animals protected vs sc Met test ([12]; 75 mg/kg): 4/8 | animals protected vs sc Met test ([12]; 150 mg/kg): 8/8 | Max. Prot., sc Met [12, 27]: 50% | animals with recurring clonic seizures, sc Met [12, 27]: 1 of 8 | anti-convulsant activity in words [22]: effective against a wide range of convulsion types; also recorded: exhibits anti-convulsant activity in mice and rats

O=C1NC(=O)C(c2ccccc2)(c2ccccc2)N1 [Phenytoin]
ED50 [4]: 29.8 mg/kg | Max. Prot., Strychnine ([14]; intraperitoneal, at 55-100 (mg/kg)): 50% | TD50 [15]: > 3000 mg/kg | protection, sc Met [3, 28]: No pro- | protection, sc Met ([3]; mice, intraperitoneal, up to 300 (mg/kg)): No protect-; also recorded: No protection | protection, sc Met [3, 26]: No protection; also recorded: No pro- | LD50 (lethality) [8]: 229.61 mg/kg | protection, Bicuculline [9, 28]: No pro- | TD50 [23]: 178 mg/kg | protection, Picrotoxin ([21]; intraperitoneal, up to 100 (mg/kg)): No pro- | protection, sc Met ([12]; rats (Table 7; title of Table 5 prints Mice), oral, up to 800 (mg/kg)): No pro-

Nc1ccc(C(=O)Nc2ccccc2)cc1 [compound 1]
ED50 ([1]; ip): 50.5 mg/kg | ED50 ([3]; ip): 59.1 mg/kg | TD50 ([20]; mouse, in vivo, ip): 111.30 mg/kg

Nc1ccc(C(=O)NC2CCCCC2)cc1 [compound 2]
ED50 ([1]; ip): 67.2 mg/kg | ED50 ([3]; ip): 123 mg/kg | TD50 ([2]; ip): 189 mg/kg

CCC1(c2ccccc2)NC(=O)N(C)C1=O (stereo not shown) [Mephenytoin]
selectivity ratio [13]: 4.74 | ED50 [4]: 18.1 mg/kg | ED50 [5]: 101 mg/kg | Max. Prot., Strychnine ([14]; intraperitoneal, at 70-150 (mg/kg)): 50% | ED50 ([1]; ip): 60.5 mg/kg | ED50 ([1]; po): 65.9 mg/kg | TD50 [15]: 85.7 mg/kg | selectivity ratio ([16]; intraperitoneal): 5.05 | selectivity ratio ([16]; oral): 9.75 | ED50 ([3]; ip): 30.4 mg/kg | ED50 ([3]; po): 36.3 mg/kg | PI (TD50/ED50) sc Met ([3]; mice, oral): 9.73 | selectivity ratio ([17]; ip, PI (TD50/ED50) MES, mice, intraperitoneal): 2.54 | selectivity ratio ([17]; po, PI (TD50/ED50) MES, mice): 5.37 | TD50 ([2]; po): 354 mg/kg | selectivity ratio ([19]; read-out: Ratio LD50/HD50): 1.4 | selectivity ratio ([19]; read-out: Ratio LD50/TD50): 3.69 | LD50 at 24 h [19]: 568 mg/kg | PI (TD50/ED50) Bicuculline ([9]; mice, intraperitoneal): 1.24 | TD50 [23]: 406 mg/kg | PI (TD50/ED50) Picrotoxin ([21]; intraperitoneal): 1.52 | selectivity ratio [24]: 3.96 | ED50 ([12]; read-out: ED50 sc Met): 21.6 mg/kg

NC(=O)N1c2ccccc2C=Cc2ccccc21 [Carbamazepine]
ED50 [4]: 8.5 mg/kg | ED50 [5]: 37.2 mg/kg | ED50 ([1]; ip): 8.81 mg/kg | ED50 ([1]; po): 15.4 mg/kg | ED50 ([3]; po): 48.1 mg/kg | protection, sc Met [3, 28]: No protection; also recorded: No protect- | ED50 [7]: 78.8 mg/kg | LD50 at 24 h [19]: 629 mg/kg | fraction protected, Bicuculline ([9]; mice, intraperitoneal, 100 mg/kg): 1/2 | Max. Prot., Bicuculline ([9]; mice, intraperitoneal, at 50-130 (mg/kg)): 62.5% | TD50 [23]: 172 mg/kg | sc Met result in words [12, 25]: Variable

Nc1ccc(C(=O)NCc2ccccc2)cc1 [No. 4, 4-amino-N-benzyl-benzamide]
ED50 ([1]; ip): 23.3 mg/kg | TD50 ([2]; ip): 83.4 mg/kg
